# In US20250289827A1, “MORPHIC FORMS OF A MUTANT BRAF DEGRADER AND METHODS OF MANUFACTURE THEREOF” (C4 THERAPEUTICS, INC., priority 2022, published 2025):
# Where a name gives a salt, the structure may show the parent alone. Read-outs that look alike come from different tables or passages of the source.
# Columns and labels:
# Format in all cases: physicochemical
# [1] = Characterization of salt forms (XRPD, DSC, TGA, KF, HPLC, NMR/IC); settings: for Melting onset (DCS, ° C.): Tonset
# Protocol: Salt Forms identified in the investigation (Table 16) were further characterized by XRPD, DCS, TGA, KF, HPLC and ^1H NMR/IC (Table 19).
# About 419 mg of sodium salt Form F was obtained as off-white solid in 76% yield.
# [2] = Bulk stability of sodium salt Form F (1 week stress); settings: for Bulk (XRPD) / Color / Purity, Bulk (HPLC): Solid state; for Decrease in chemical purity: one week stress at 25° C./92% RH
# Protocol: Sodium salt Form F was placed at 25° C./92% RH in an open container, at 40° C./75% RH in an open container and at 60RC in a closed container for 1 week. Samples after the stress were characterized by XRPD and HPLC and inspected for color change.
# [3] = Hygroscopicity of sodium salt Form F by DVS at 25° C.; settings: for Form and crystallinity change after DVS test: DVS 25° C.
# Protocol: Hygroscopicity of sodium salt Form F was evaluated by dynamic vapor sorption (DVS) test at 25° C.
# [4] = Solubility in aqueous pH buffers and bio-relevant fluids at 37° C.; settings: for XRPD 24 h: residual solid
# Protocol: Solubility of the Form B and sodium salt Form F was measured in 7 aqueous pH buffers and bio-relevant fluids including pH 1.2 HCl solution (0.2N), pH 4.5 acetate buffer (50 mM), pH 6.8 phosphate buffer (50 mM), pH 2.0 SGF, pH 6.5 FaSSIF-v1, pH 5.0 FeSSIF-v1 and water at 37° C. for 2 h and 24 h, respectively.
# Accurate 20 mg of the Form B was weighed into a 20 mL glass vial. Then, 10 mL of solubility medium was added. The sodium salt Form F amount used was equivalent to 20 mg anhydrous form. Obtained suspensions were stirred at 37° C. at 400 rpm and sampled at 2 hours and at 24 hours, respectively. The samples were centrifuged at 37° C. at 4,000 rpm for 4 min. Supernatants were analyzed by HPLC and pH meter for solubility and pH value, respectively. Residual solids (wet cakes) from the 24 hours samples were also characterized by XRPD to determine physical form.
# [5] = Photostability evaluation of sodium salt Form F
# [6] = Equilibration under a temperature cycle (XRPD); settings: 2-methyltetrahydrofuran, about 8 cycles
# Protocol: The equilibration was executed with a stirring bar on a magnetic stirring plate at a rate of 300 rpm. The obtained suspensions were filtered through a 0.45 µm nylon membrane filter by centrifugation at 14,000 rpm. Solid parts (wet cakes) were investigated by XRPD.
# [7] = 25° C./92% RH, open container, 1 week
# [8] = 40° C./75% RH, open container, 1 week
# [9] = 60° C., tight container, 1 week
# [10] = FaSSIF-v1, pH 6.5, 37° C., LOQ: 1.5 μg/mL
# [11] = pH 1.2 HCl solution (0.2N), 37° C.
# [12] = pH 4.5 acetate buffer (50 mM), 37° C.
# [13] = pH 4.5 acetate buffer (50 mM), 37° C., LOQ: 1.5 μg/mL
# [14] = pH 6.8 phosphate buffer (50 mM), 37° C.
# [15] = pH 6.8 phosphate buffer (50 mM), 37° C., LOQ: 1.5 μg/mL
# [16] = Solid state, photo (visible light, 1.2 million lux-hrs)
smiles,measurement,setting,value
CCN(C)S(=O)(=O)[N-]c1ccc(F)c(Oc2ccc3ncn([C@H]4COC5(CCN(C(=O)CC6(O)CCN(c7cc8c(cc7F)c(N7CCC(=O)NC7=O)nn8C)CC6)CC5)C4)c(=O)c3c2)c1C#N.[Na+] [Compound 1 sodium salt Form E],"Melting onset (DCS, ° C.)",[1]; listed as Sodium salt Form E,Tonset 228.7 °C
same,Weight loss (TGA),[1]; at 180° C.,10.8% at
same,"Enthalpy (DSC, J/g)",[1]; listed as Sodium salt Form E,26.01 J/g
same,Water content (by KF),[1]; listed as Sodium salt Form E,10.2% by % by weight
CCN(C)S(=O)(=O)[N-]c1ccc(F)c(Oc2ccc3ncn([C@H]4COC5(CCN(C(=O)CC6(O)CCN(c7cc8c(cc7F)c(N7CCC(=O)NC7=O)nn8C)CC6)CC5)C4)c(=O)c3c2)c1C#N.[Na+] [Compound 1 sodium salt Form F],Crystallinity change,"[2]; 60° C. in a tight/closed container, 1 week",slight crystallinity decrease
same,Bulk (XRPD),[2]; [7],No form change
same,Color,[2]; [7],No change of color
same,"Purity, Bulk (HPLC)",[2]; [7],97.7%
same,Bulk (XRPD),[2]; [8],No form change
same,Color,[2]; [8],No change of color
same,"Purity, Bulk (HPLC)",[2]; [8],98.5%
same,Bulk (XRPD),[2]; [9],"No form change, slight crystallinity decrease"
same,Color,[2]; [9],No change of color
same,"Purity, Bulk (HPLC)",[2]; [9],98.9%
same,Decrease in chemical purity,[2]; listed as Form F,1.2%
same,Decrease in chemical purity,[2]; listed as Sodium salt Form F,about 1.2%
same,Morphic form stability (form change),"[2]; one week, 25° C./92% RH open, 40° C./75% RH open, 60° C. tight container",no form change
same,1st desorp. Weight % change,"[3]; 0% RH, 25° C.",0.0%
same,2nd sorp. Weight % change,"[3]; 0% RH, 25° C.",0.0%
same,1st desorp. Weight % change,"[3]; 10% RH, 25° C.",0.6%
same,2nd sorp. Weight % change,"[3]; 10% RH, 25° C.",0.5%
same,1st desorp. Weight % change,"[3]; 20% RH, 25° C.",1.2%
same,2nd sorp. Weight % change,"[3]; 20% RH, 25° C.",0.8%
same,1st desorp. Weight % change,"[3]; 30% RH, 25° C.",2.2%
same,2nd sorp. Weight % change,"[3]; 30% RH, 25° C.",1.2%
same,1st desorp. Weight % change,"[3]; 40% RH, 25° C.",3.7%
same,1st sorp. Weight % change,"[3]; 40% RH, 25° C.",3.1%
same,2nd desorp. Weight % change,"[3]; 40% RH, 25° C.",3.9%
same,2nd sorp. Weight % change,"[3]; 40% RH, 25° C.",1.5%
same,1st desorp. Weight % change,"[3]; 50% RH, 25° C.",5.0%
same,1st sorp. Weight % change,"[3]; 50% RH, 25° C.",3.3%
same,2nd desorp. Weight % change,"[3]; 50% RH, 25° C.",5.2%
same,2nd sorp. Weight % change,"[3]; 50% RH, 25° C.",2.2%
same,1st desorp. Weight % change,"[3]; 60% RH, 25° C.",6.1%
same,1st sorp. Weight % change,"[3]; 60% RH, 25° C.",3.4%
same,2nd desorp. Weight % change,"[3]; 60% RH, 25° C.",6.2%
same,2nd sorp. Weight % change,"[3]; 60% RH, 25° C.",3.5%
same,1st desorp. Weight % change,"[3]; 70% RH, 25° C.",7.5%
same,1st sorp. Weight % change,"[3]; 70% RH, 25° C.",3.7%
same,2nd desorp. Weight % change,"[3]; 70% RH, 25° C.",7.7%
same,2nd sorp. Weight % change,"[3]; 70% RH, 25° C.",5.8%
same,1st desorp. Weight % change,"[3]; 80% RH, 25° C.",9.7%
same,1st sorp. Weight % change,"[3]; 80% RH, 25° C.",4.1%
same,2nd desorp. Weight % change,"[3]; 80% RH, 25° C.",9.9%
same,2nd sorp. Weight % change,"[3]; 80% RH, 25° C.",7.9%
same,1st desorp. Weight % change,"[3]; 90% RH, 25° C.",15.5%
same,1st sorp. Weight % change,"[3]; 90% RH, 25° C.",7.0%
same,2nd desorp. Weight % change,"[3]; 90% RH, 25° C.",16.4%
same,2nd sorp. Weight % change,"[3]; 90% RH, 25° C.",13.1%
same,1st desorp. Weight % change,"[3]; 95% RH, 25° C.",16.7%
same,1st sorp. Weight % change,"[3]; 95% RH, 25° C.",16.7%
same,2nd desorp. Weight % change,"[3]; 95% RH, 25° C.",19.6%
same,2nd sorp. Weight % change,"[3]; 95% RH, 25° C.",19.6%
same,Form and crystallinity change after DVS test,[3],no changes in crystallinity
same,Form and crystallinity change after DVS test,[3]; listed as sodium salt Form F,no form change and no crystallinity decrease
same,Hygroscopicity,"[3]; below 80% RH, 25° C.",slightly hygroscopic
same,Water uptake,[3]; from 80% RH to 95% RH at 25° C.,12.6%
same,Disproportionation after solubility test (IC),[4],partially disproportionated
same,pH of supernatant 24 h,"[4]; FaSSIF-v1, pH 6.5, 37° C.",(pH = 6.7)
same,Solubility 2 h,[4]; [10],<LOQ
same,Solubility 24 h,[4]; [10],<LOQ
same,Solubility 2 h,"[4]; FeSSIF-v1, pH 5.0, 37° C.",6.7 µg/mL
same,Solubility 24 h,"[4]; FeSSIF-v1, pH 5.0, 37° C.",10.4 µg/mL
same,pH of supernatant 24 h,"[4]; FeSSIF-v1, pH 5.0, 37° C.",(pH = 5.1)
same,Solubility 2 h,"[4]; SGF, pH 2.0, 37° C.",10.9 µg/mL
same,Solubility 24 h,"[4]; SGF, pH 2.0, 37° C.",8.6 µg/mL
same,pH of supernatant 24 h,"[4]; SGF, pH 2.0, 37° C.",(pH = 2.2)
same,Solubility 24 h,"[4]; Water, 37° C.",73.0 µg/mL
same,pH of supernatant 24 h,"[4]; Water, 37° C.",(pH = 8.7)
same,Solubility 2 h,"[4]; Water, 37° C., LOQ: 1.5 μg/mL",98.8 µg/mL
same,pH dependence of solubility,"[4]; aqueous media, 37° C.",pH dependent solubility
same,Solubility compared with Form B,"[4]; especially pH 1.2 HCl solution, pH 4.5 acetate buffer, SGF, FeSSIF-v1, 37° C.",better solubility than that of the Form B
same,Solubility 2 h,[4]; [11],19.3 µg/mL
same,Solubility 24 h,[4]; [11],51.1 µg/mL
same,pH of supernatant 24 h,[4]; [11],(pH = 1.0)
same,Crystallinity change after solubility test,[4]; pH 1.2 HCl solution and SGF,crystallinity decrease
same,pH of supernatant 24 h,[4]; [12],(pH = 4.6)
same,Solubility 2 h,[4]; [13],<LOQ
same,Solubility 24 h,[4]; [13],3.7 µg/mL
same,pH of supernatant 24 h,[4]; [14],(pH = 6.9)
same,Solubility 2 h,[4]; [15],<LOQ
same,Solubility 24 h,[4]; [15],<LOQ
same,XRPD 24 h,"[4]; FaSSIF-v1, pH 6.5, 37° C.",No form change
same,XRPD 24 h,"[4]; FeSSIF-v1, pH 5.0, 37° C.",No form change
same,XRPD 24 h,"[4]; Water, 37° C.",No form change
same,XRPD 24 h,[4]; [12],No form change
same,XRPD 24 h,[4]; [14],No form change
same,Chemical purity decrease after photostability evaluation,[5],about 1%
same,Bulk (XRPD),[5]; [16],No form change
same,Color,[5]; [16],No change of color
same,"Purity, Bulk (HPLC)",[5]; [16],97.9%
same,"Purity, Control (HPLC)","[5]; photo test, control sample",98.9%
same,Crystallinity by XRPD,"[1]; Table 20, batch of Example 24",Medium crystallinity
same,"DSC, heating rate [10° C./min]: Tonset","[1]; Table 20, batch of Example 24",Tonset 194.7 °C
same,Melting enthalpy,"[1]; Table 20, batch of Example 24",32.4 J/g
same,"Residual solvent by ^1H NMR, weight %","[1]; Table 20, batch of Example 24",No detectable residual solvent
same,Water content by Karl Fischer,"[1]; Table 20, batch of Example 24",2.5 equiv. water
same,"Water content by Karl Fischer, weight %","[1]; Table 20, batch of Example 24",4.6 % by weight
same,"Melting onset (DCS, ° C.)",[1]; listed as Sodium salt Form F,Tonset 197.7 °C
same,Weight loss (TGA),[1]; at 100° C.,"2.7% at 100° C.,"
same,Weight loss (TGA),[1]; at 100° C.-170° C.,3.2% at 100° C.-
same,"Weight loss in % at ° C. (Thermogravimetry, heating rate [10° C./min])","[1]; at 180° C., Table 20, batch of Example 24",4.8% at 180 °C
same,Water content (by KF),[1]; listed as Sodium salt Form F,6.2% by % by weight
CCN(C)S(=O)(=O)[N-]c1ccc(F)c(Oc2ccc3ncn([C@H]4COC5(CCN(C(=O)CC6(O)CCN(c7cc8c(cc7F)c(N7CCC(=O)NC7=O)nn8C)CC6)CC5)C4)c(=O)c3c2)c1C#N.[K+] [Compound 1 potassium salt Form G],Weight loss (TGA),[1]; at 170° C.,"4.5% at 170° C.,"
same,Weight loss (TGA),[1]; at 170° C.-230° C.,4.8% at 170° C.-
CCN(C)S(=O)(=O)Nc1ccc(F)c(Oc2ccc3ncn([C@H]4COC5(CCN(C(=O)CC6(O)CCN(c7cc8c(cc7F)c(N7CCC(=O)NC7=O)nn8C)CC6)CC5)C4)c(=O)c3c2)c1C#N [Compound 1 Form C],Form conversion on temperature cycling,[6],converted to more stable Form B
same,Form conversion on temperature cycling,[6]; listed as Form C,converted to anhydrate Form B
CCN(C)S(=O)(=O)Nc1ccc(F)c(Oc2ccc3ncn([C@H]4COC5(CCN(C(=O)CC6(O)CCN(c7cc8c(cc7F)c(N7CCC(=O)NC7=O)nn8C)CC6)CC5)C4)c(=O)c3c2)c1C#N [Compound 1 potassium salt Form H],"Enthalpy (DSC, J/g)",[1],33.48 J/g
same,"Melting onset (DCS, ° C.)",[1],Tonset 221.7 °C
same,Weight loss (TGA),[1]; at 170° C.,6.6% at
CCN(C)S(=O)(=O)[N-]c1ccc(F)c(Oc2ccc3ncn([C@H]4COC5(CCN(C(=O)CC6(O)CCN(c7cc8c(cc7F)c(N7CCC(=O)NC7=O)nn8C)CC6)CC5)C4)c(=O)c3c2)c1C#N.[Na+] [Compound 1 sodium salt Form D],"Melting onset (DCS, ° C.)",[1]; listed as Sodium salt Form D,Tonset 229.5 °C
same,Weight loss (TGA),[1]; at 150° C.,6.9% at
same,"Enthalpy (DSC, J/g)",[1]; listed as Sodium salt Form D,27.83 J/g
